Experimental findings from ChEMBL document CHEMBL4371025, “Discovery and evaluation of novel FAAH inhibitors in neuropathic pain model” (Bioorg Med Chem Lett, 2019) are described below.

Series [1] can be described thus: AUC (0 to 48 hrs) in Sprague-Dawley rat at 3 mg/kg, po administered as single dose via gavage by LC-MS/MS analysis. Format: ADME, organism-based. On the set-up: dose 3 mg/kg, time < 48 hr, route oral. The conditions noted are these: in vivo.
The nature of series [2]: Clearance in Sprague-Dawley rat at 1 mg/kg, iv administered as single dose by LC-MS/MS analysis. Format: ADME, organism-based. As to conditions: in vivo.
Series [3] can be described thus: Intrinsic metabolic stability in rat liver microsomes assessed as metabolic turnover over per mg protein at 1 uM preincubated for 5 mins followed by NADPH cofactor addition and measured after 30 mins by LC-MS/MS analysis. As to conditions: 0.5 h. Format: ADME, Microsome. (In general: Microsomes from liver hold many membrane-bound enzymes, among them those of drug oxidation.)

Series [4] in a line: Intrinsic metabolic stability in human liver microsomes assessed as metabolic turnover rate per mg protein at 1 uM preincubated for 5 mins followed by NADPH cofactor addition and measured after 30 mins by LC-MS/MS analysis. The series is classed as ADME, Microsome. The conditions noted are these: 0.5 h.
The nature of series [5]: Elimination half life in Sprague-Dawley rat at 1 mg/kg, iv administered as single dose by LC-MS/MS analysis. Format: ADME, organism-based. The conditions noted are these: in vivo, read-out: beta t1/2 (converted).
Series [6] can be described thus: AUC (0 to 48 hrs) in Sprague-Dawley rat at 1 mg/kg, iv administered as single dose by LC-MS/MS analysis. The series is classed as ADME, organism-based. Further details: dose 1 mg/kg, time < 48 hr, route intravenous. As to conditions: in vivo.
The nature of series [7]: Cmax in Sprague-Dawley rat at 3 mg/kg, po administered as single dose via gavage by LC-MS/MS analysis. The series is classed as ADME, organism-based. On the set-up: dose 3 mg/kg, route oral. The conditions noted are these: in vivo.
Series [8] is described as follows: Oral bioavailability in Sprague-Dawley rat at 3 mg/kg administered as single dose via gavage by LC-MS/MS analysis. The series is classed as ADME, organism-based. As to conditions: in vivo.
Series [9] in a line: Volume of distribution at steady state in Sprague-Dawley rat at 1 mg/kg, iv administered as single dose by LC-MS/MS analysis. Format: ADME, organism-based. As to conditions: in vivo, read-out: Vdss.
The target of series [10] is T1, Fatty-acid amide hydrolase 1 (Rattus norvegicus, UniProt P97612).
T1 sequence (P97612 whole entry): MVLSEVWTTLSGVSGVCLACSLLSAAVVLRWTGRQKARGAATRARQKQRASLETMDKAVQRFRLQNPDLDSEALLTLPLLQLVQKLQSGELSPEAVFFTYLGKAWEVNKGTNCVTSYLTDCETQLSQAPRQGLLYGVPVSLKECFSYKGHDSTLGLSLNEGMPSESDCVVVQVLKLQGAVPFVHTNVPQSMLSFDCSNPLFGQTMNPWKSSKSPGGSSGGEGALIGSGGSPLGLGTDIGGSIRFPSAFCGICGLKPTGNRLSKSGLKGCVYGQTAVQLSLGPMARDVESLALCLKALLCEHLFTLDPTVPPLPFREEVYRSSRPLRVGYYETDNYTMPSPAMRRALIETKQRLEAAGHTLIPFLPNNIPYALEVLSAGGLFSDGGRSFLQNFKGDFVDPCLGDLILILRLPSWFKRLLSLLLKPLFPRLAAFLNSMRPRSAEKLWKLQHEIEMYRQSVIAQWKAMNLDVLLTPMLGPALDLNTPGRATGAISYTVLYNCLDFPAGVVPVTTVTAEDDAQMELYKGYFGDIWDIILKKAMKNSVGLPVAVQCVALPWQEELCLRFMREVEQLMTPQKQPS
The series is described as follows: Inhibition of rat FFAH expressed in Escherichia coli using AAMCA as substrate incubated for 1 min measured for 50 mins by fluorescence assay.

As for `O=C(NC1CCC(=Cc2cccc(Oc3ccc(C(F)(F)F)cn3)c2)CC1)c1cnc2[nH]ccc2c1` (racemic), the AUC(0-t) (in general, exposure summed from dosing to a finite time, without extrapolation to infinity) at 48 h was 3 µM·h in [1] and 14.3 µM·h in series [6]. For the same molecule, the clearance – broadly, the rate of elimination divided by the concentration – in series [2] was 2.2 mL/min/kg. Besides, the Drug metabolism in [3] is 0.04 nmol/min/mg; in series [4], 0.08 nmol/min/mg. In [5], the half-life was 7.3 h. The Cmax (as a rule, the maximum level reached in the sampled fluid or tissue) in series [7] was determined as 190 nM. The bioavailability (in general, the share of a dose that reaches the circulation, judged against a reference dose that is usually intravenous) in series [8] stood at 7.2%. Further, the Vd in series [9] amounted to 1 L/kg. In series [10], 17.2 nM corresponded to half-maximal inhibition (IC50).
